Assay results: patent US20110086828A1, “TREATMENT OF ALCOHOL ABUSE AND […] MODULATORS OF NE[…] SITES ON GABAA RECEPTORS” (Board of Supervisors of Louisiana State University and …, priority 2009, published 2011)

Tested on: male Long-Evans hooded rats
Test: two-bottle ethanol preference test (ethanol intake) after i.p. neuroactive steroid
Type: in vivo, rat
Settings: for ethanol intake vs baseline / volume of ethanol intake vs baseline: 10 and 56 mg/kg i.p. 15 min before 30-min session; for water intake: 10 and 56 mg/kg i.p.; for effect on ethanol intake (oral self administration of ethanol): summary statement, twenty-two male Long-Evans hooded rats
Protocol: Upon arrival, these subjects were housed 4 per cage and provided a diet of standard rodent chow ad libitum (Rodent Diet 5001, PMI Inc., St. Louis, Mo., USA) until postnatal day (hereinafter “PD”) 70. From PD 71 forward, the subjects were housed individually and maintained at 95% of their free-feeding weight during which a saccharin-fading procedure was conducted. Water was provided ad libitum in the home cage except during the experimental sessions. The home cage was made of polypropylene plastic and contained hardwood chip bedding. The colony room was maintained at 21±2 C.° with 50±10% relative humidity on a 14L:10D (light/dark) cycle (lights on 06:00 hours (h); lights off 20:00 h). Following training under the saccharin-fading procedure, the subjects were returned to ad libitum feeding conditions for 73 (minimum) to 89 (maximum) days during which an ethanol concentration-effect curve was established. After this curve was obtained, subjects were maintained at 95% of their free-feeding weight for the rest of the study. Ethanol preference training and experimental sessions were conducted daily during the light cycle between the hours of 12:00 h and 14:00 h. Subjects used in these studies were maintained in accordance with the Institutional Animal Care and Use Committee, Louisiana State University Health Sciences Center, and in compliance with the guidelines of the National Institute of Health Guide for Care and Use of Laboratory Animal Resources (publication No. 85-23, revised 1996).
While still housed 4 per cage, subjects were randomly divided into two groups, a group that received ethanol between PD 35 and 63 (adolescent ethanol group) and a group that received saline during the same postnatal period (adolescent saline group). The adolescent ethanol group (n=11) received 2 g/kg of ethanol intraperitoneally (hereinafter “i.p.”) every other day, whereas the adolescent saline group (n=11) received an equal volume of saline every other day, for a total of 15 injections.
Subjects were trained to consume ethanol orally using a modified saccharin/ethanol fading procedure (Samson, 1986; Leonard et al., 2006) starting on PD 75. Prior to each daily training session, animals were weighed and then returned to their home cage. Water bottles were removed and replaced for 30 min with 50-ml plastic centrifuge tubes containing a saccharin/ethanol solution and fitted with a rubber stopper and metal sipper tube. At the end of the 30-min session, the drinking tubes were removed, water bottles were replaced, and the volume of the solution consumed was determined by weighing the tubes (i.e., [(weight prior to the session—weight after the session)-0.4 ml)]. All solutions were prepared fresh daily. Rats initially received a 0.2% sodium saccharin(weight (g of sodium saccharin)/volume (100 mL solution))/0% ethanol (volume (mL of alcohol)/volume (100 mL solution)) solution that was gradually replaced until a solution of 0% sodium saccharin/10% ethanol was achieved. After a subject acquired stable saccharin/ethanol intake (±20% of the mean for 3 consecutive days) or a maximum of 8 days elapsed, the next sodiumsaccharin/ethanol solution was presented. Solutions were presented in the following order: 0.2% saccharin/0% ethanol, 0.15% saccharin/0.5% ethanol, 0.125% saccharin/1% ethanol, 0.1% saccharin/2% ethanol, 0.05% saccharin/5% ethanol, 0.01% saccharin/8% ethanol, and 0% saccharin/10% ethanol. Training, which took 40-57 sessions, and all subsequent testing were conducted 7 days per week.
After a stable baseline of ethanol drinking was established with a 10% ethanol solution, a concentration-effect curve for ethanol and water consumption was established using the standard two-bottle preference test. During these tests, subjects were allowed simultaneous access to two drinking tubes daily for 60 min in their home cage. […]

Compound	ethanol intake vs baseline (18% ethanol)	volume of ethanol intake vs baseline (18% ethanol)	water intake (30-min preference session)	intake of 18% ethanol solution vs vehicle, after stability criterion met (10 mg/kg i.p., Holm-Sidak post-hoc, n=22)	sedative effects (highest dose of pregnanolone)	intake of 18% ethanol solution, first day of injection, comparison between doses (pregnanolone 3.2 mg/kg i.p. vs 1.8, 5.6 and 10 mg/kg, p<0.05)	intake of 18% ethanol solution vs vehicle, first day of injection (pregnanolone 1-10 mg/kg i.p., 30-min preference session, n=22)	effect on ethanol intake (oral self administration of ethanol)	ethanol intake volume (56 mg/kg i.p., every ethanol concentration except the 18% concentration)	ethanol intake, first day of injection (100 mg/kg i.p. (highest dose), 18% ethanol, p<0.001, n=22)	shift of ethanol concentration-effect curve (10, 32 and 56 mg/kg i.p. with ethanol 3.2-32%, p<0.05)	ethanol intake at varying ethanol concentrations (10 and 32 mg/kg i.p., both doses comparable)	ethanol intake vs vehicle, after stability criterion met (10 to 100 mg/kg i.p., 18% ethanol, p<0.05, n=22)
CC(=O)OC1CC[C@@]2(C)C(=CC(=O)[C@@H]3[C@@H]2CC[C@]2(C)C(=O)CC[C@@H]32)C1 (some centres unmarked) [7-keto-DHEA, 3-acetyl-7-oxo-dehydroepiandrosterone]	dose-dependent decreases	dose-dependent decreases	not significantly different										
CC(=O)[C@H]1CC[C@H]2[C@@H]3CC[C@@H]4C[C@H](O)CC[C@]4(C)[C@H]3CC[C@]12C [pregnanolone, 5β-pregnan-3α-ol-20-one]				significantly differed from vehicle	produced sedative effects	significantly higher	none of the effects of dose were different from vehicle	no apparent effect on ethanol intake					
C[C@]12CC[C@H](O)CC1=CC[C@@H]1[C@@H]2CC[C@]2(C)C(=O)CC[C@@H]12 [DHEA, 5-androstene-3β-ol-17-one]	dose-dependent decreases	dose-dependent decreases	not significantly different					markedly reduce oral self administration of ethanol	below 1 ml	significant effect	shifted downward significantly	decreased the intake of ethanol concentrations ranging from 3.2 and 18%	significantly decreased intake
